Assay results taken from patent EP4570800A1, “CRYSTAL FORM OF PYRIDINOPYRIMIDINONE COMPOUND, ACID SALT THEREOF, CRYSTAL FORM OF ACID SALT THEREOF, AND USE” (Wuhan Humanwell Innovative Drug Research and Development …, priority 2022, dated 2024).
pIC50: −log10 of the molar value.

Legend:
[1] = Mouse pharmacokinetic test (oral gavage); format: in vivo; settings: plasma, male ICR mice, oral administration by gavage, 10 mg/kg
Procedure: Male ICR mice (20 to 25 g) were used, and fasted overnight. Three mice were taken and orally administered by gavage (10 mg/kg). Blood was collected before the administration, and at 15 min, 30 min, 1 h, 2 h, 4 h, 8 h, and 24 h after the administration. 6,800 g of the blood samples were centrifuged at 2 to 8°C for 6 min, and plasma was collected and stored at -80°C. The plasma at each time point was taken and added with an acetonitrile solution containing internal standard in 3 to 5 times the amount, vortexed and mixed for 1 min, and centrifuged at 13,000 rpm/min at 4°C for 10 min. The supernatant was collected, added with water in 3 times the amount, and mixed. An appropriate amount of the mixture was taken for LC-MS/MS analysis. The main pharmacokinetic parameters were analyzed using WinNonlin 7.0 software with non-compartmental model.

[2] = tested on: ERK phosphorylation level in DLD-1 cells; experiment: Inhibition of ERK phosphorylation level in DLD-1 cells (intracellular western blot); format: cell-based; settings: Homo sapiens
Procedure: Intracellular western blot quantitative analysis was used to detect the inhibitory level of compounds on ERK phosphorylation in DLD-1 cells.
DLD-1 cells (ATCC, CCL-221) were seeded in a T75 culture flask at 2.5 × 10^6 cells/flask, and cultured in a RPMI 1640 medium containing 10% FBS for 2 days. On day 3, the cells were seeded on a 384-well plate, and cultured overnight at 37°C, 5% CO2. After overnight culture, the plate was added with serially diluted compounds (the final content of DMSO was 0.5%), the negative group was added with DMSO, and incubated in a 37°C, 5% CO2 incubator.
The cells were fixed, washed once with PBS, treated to disrupt membranes, and blocked at room temperature for 1 h. The blocking solution was removed. The plate was added with primary antibody (CST, Cat. No. #4370S), and incubated overnight at 4°C. The plate was washed 3 times with PBST (PBS solution added with 0.05% Tween-20), and soaked for 2 min each time. The plate was added with secondary antibody (LI-COR, Cat. No. 926-32211), and incubated at room temperature in the dark. The plate was washed 3 times with PBST, and soaked for 2 min each time. The plate was centrifuged at 1000 rpm for 1 min, scanned on a two-color infrared laser imaging system (Odyssey® CLX) to read the signal. Relative signal = 800-channel signal values/700-channel signal values. […]
IC50 values were calculated using Graphpad 5 software.

Cc1nc(N[C@H](C)c2cccc(S(F)(F)(F)(F)F)c2)c2cn(C3(CF)CC3)c(=O)cc2n1 [Compound of formula I, (R)-6-(1-(fluoromethyl)cyclopropyl)-2-methyl-4-((1-(3-(pentafluorosulfanyl)phenyl)ethyl)amino)pyrido[4,3-d]pyrimidin-7(6H)-one]
AUC(0-t) [1]: 3080 ng·h/mL | Cmax [1]: 1440 ng/mL | Tmax [1]: 60 min | half-life [1]: 58.2 min | pIC50 [2]: 7.25
